Laboratory results reported in patent publication US4803227A, “Aminoalkyl ethers of phenols as anticancer agents for the breast and colon” (The University of Manitoba, priority 1984, dated 1989).
Counter-ions that a name gives are not always drawn. Like-named read-outs stand apart in the source and are kept apart here.

How the values were obtained:
estrogen receptor (ER) [1] = experiment: competition with [3H] 17 β-estradiol for ER; assay type: binding
[2] = test system: MCF-7 human breast cancer cells; experiment: cells; settings: for IC90: Homo sapiens, MCF7, 168 h, read-out: D10 (concentration required to effect a 90% reduction in the number of MCF7 cells)
Method: Concentrations are shown on the x-axis. […] A longer exposure time (10 days) was employed because this cell line is slower growing than the MCF-7 cell line.
In the case of MCF-7 cells, approximately 2×10^4 MCF-7 cells were seeded into duplicate 25 cm tissue culture flasks containing Dulbecco's modified Eagle's medium supplemented with insulin (10 μg/ml), glucose ([…])and 5% dextran coated charcoal-stripped fetal calf serum to which was added increasing concentrations of the compound to be tested. Cells were allowed to grow for 7 days with one change of medium containing the test compound on day 4. […] Total cell number at each concentration was determined by Coulter counter. […] D (that concentration required to elicit a 90% reduction in cell number relative to the control after 7 days of treatment) was determined for each compound.

[3] = biological target: AEBS (anti-estrogen binding site), MCF-7 microsomes; experiment: competition with [3H]-tamoxifen for AEBS, MCF-7 microsomes; design: species or system human; settings: for IC50: read-out: RSBA (M) for AEBS, MCF-7 microsomes
Excerpt: (§1) *Relative specific binding affinity (RSBA) is the concentration of cold
(§2) competitor required to displace 50% of the specifically bound label and
(§3) expresses the affinity of the test compound for the receptor relative to
(§4) that of the labelled specific ligand, in this instance 1.5 ×

[4] = biological target: AEBS (anti-estrogen binding site), rat liver microsomes; experiment: competition with [3H]-tamoxifen for AEBS, rat liver microsomes; settings: concentration of cold competitor required to displace 50% of specifically bound label, 1.5 × 10^-9 M [3H]-tamoxifen; read-out: RSBA (M) for AEBS, Rat liver microsomes
Excerpt: as §1, §2, §3, §4

colon carcinoma (3C872) = experiment: colon tumor test in female rats implanted with colon carcinoma (3C872); assay type: in vivo; settings: for Tumor wt % of Controls / Tumor Evaluation (wt. mg): intramuscular, twice daily for 7 days; for Tumor Evaluation (wt. mg): control 2261
Method: The rats had been subcutaneously implanted with colon carcinoma (3C872) and were cancerous. […] The wt. of the tumor was measured after the 7-day treatment and reported as a % (average) of the control tumor wt. (average) using 40 control rats.

[5] = test system: progesterone receptor (PgR) in MCF-7 cells; experiment: induction of progesterone receptor (PgR) synthesis in MCF-7 cells; assay type: cell-based, human; settings: 5 days of pre-incubation, 1×10^-8 M
MCF-7 cells = settings: 7 days; for reversal of growth inhibition by estradiol: 1×10^-8 M estradiol; for inhibition of growth of MCF-7 cells: tamoxifen 5×10^-7 M, N,N-DPPE 1x-8x tamoxifen concentration
[6] = literature; cited from earlier work
estrogen receptor (ER) [7] = settings: literature; cited from earlier work
[8] = concentration of cold competitor required to displace 50% of specifically bound label, 1.5 × 10^-9 M [3H]-tamoxifen
[9] = microsome preparation not given

c1ccc(Cc2ccc(OCCN3CCOCC3)cc2)cc1 [MPPE, N-morpholino-2-[(4-phenylmethyl)phenoxy]ethanamine hydrochloride]
binding to ER (estrogen receptor (ER) [1]): only weakly to ER
IC90 [2]: 16 µM
IC50 [3, 8]: 6.6e-07 M
binding to AEBS [3, 9]: bind significantly to AEBS

CCN(CC)CCOc1ccccc1 [N,N-DPEA, N,N-diethyl-2-phenoxyethylamine hydrochloride, reference compound]
IC90 [2]: 1100 µM
IC50 [4]: 4e-05 M
IC50 [3, 8]: 8e-05 M

CCN(CC)CCOc1ccc(Cc2ccccc2)cc1 [N,N-DPPE, N,N-diethyl-2-[(4-phenylmethyl)phenoxy]ethanamine hydrochloride]
IC90 [2]: 16 µM
IC50 [4]: 4e-08 M
Tumor wt % of Controls (colon carcinoma (3C872); 8.00 mg/kg per injection): 80%
Tumor Evaluation (wt. mg) (colon carcinoma (3C872); 8.00 mg/kg per injection): 1817 mg
Tumor wt % of Controls (colon carcinoma (3C872); 16.00 mg/kg per injection): 99%
Tumor Evaluation (wt. mg) (colon carcinoma (3C872); 16.00 mg/kg per injection): 2259 mg
Tumor wt % of Controls (colon carcinoma (3C872); 32.00 mg/kg per injection): 68%
Tumor Evaluation (wt. mg) (colon carcinoma (3C872); 32.00 mg/kg per injection): 1557 mg
reduction in tumor growth (colon carcinoma (3C872); 32 mg/kg, 7 days): 30%
optimal dosage (colon carcinoma (3C872); 7-day test): 30 to 40 mg/kg
results at higher doses (colon carcinoma (3C872); above 60 mg/kg): results became poorer
induction of PgR synthesis above control levels [5]: failure to induce significant syn thesis of progesterone receptor (PgR) above control levels
reversal of growth inhibition by estradiol (MCF-7 cells): no significant reversal of its effect by estradiol
inhibition of growth of MCF-7 cells (MCF-7 cells; absence of estradiol): significant growth inhibition, but in all cases, less than that for tamoxifen
inhibition of growth of MCF-7 cells (MCF-7 cells; presence of estradiol): significantly (P<0.001) more inhibition than tamoxifen
IC50 [3, 8]: 7e-07 M
binding to AEBS [3, 9]: bind significantly to AEBS

CN(C)CCOc1ccccc1Cc1ccccc1 [Phenyltoloxamine, N,N-dimethyl-2[(2-phenylmethyl)phenoxy]ethanamine, reference compound]
IC90 [2]: 48 µM
concentrations at which compound becomes significantly cytotoxic for MCF-7 cells ([2]; human, 10080 min): > 100 µM
IC50 [4]: 2e-06 M
anti-histamine effects [6]: pronounced anti-histamine effects

CC/C(=C(\c1ccccc1)c1ccc(OCCN(C)C)cc1)c1ccccc1 [Tamoxifen, 1-(p-β-dimethylaminoethoxyphenyl)-trans-1,2-diphenylbut-1-ene, reference compound]
competition for the estrogen receptor (estrogen receptor (ER) [7]): compete for the estrogen receptor (ER)
IC90 [2]: 4.8 µM
reversal of growth inhibition by estradiol (MCF-7 cells): largely but not completely reversed by the addition of 1×10^-8 M estradiol
inhibition of growth of MCF-7 cells (MCF-7 cells; absence of estradiol): Significant inhibition

C(=C(c1ccccc1)c1ccccc1)c1ccccc1 [Triphenylethylene, triphenylethylene, reference compound]
competition with [3H] 17 β-estradiol for ER (estrogen receptor (ER) [1]; at higher concentrations): competes with [^3 H] 17 β-estradiol for ER
cytotoxic effect on MCF-7 cells [2]: no cytotoxic effect on MCF-7 cells after 7 days of exposure
D10 (concentration required to effect a 90% reduction in the number of MCF7 cells) ([2]; 7 days of exposure): No effect
competition with [3H]-tamoxifen for AEBS ([3]; at all concentrations tested, microsome preparation not given): fails to compete with [^3 H]-tamoxifen for AEBS
RSBA (M) for AEBS, MCF-7 microsomes [3, 8]: No affinity
